Columns and labels:
[1] = test system: Phakopsora pachyrhizi (F129L); assay: Protective control of soybean rust on soybeans (PHAKPA P6); format: in vivo; details: for PHAKPA (F129L) Disease level (%) P6 at 16 ppm / PHAKPA (F129L) Disease level (%) P6 at 4 ppm: P6 protective, % diseased leaf area; for % PHAKPA (F129L) Disease level P6 at 4 ppm: protective P6, 4 ppm; for % PHAKPA (F129L) Disease level P6 at 4 ppm / % PHAKPA (F129L) Disease level P6 at 16 ppm: soybean rust F129L; for % PHAKPA (F129L) Disease level P6 at 16 ppm: protective P6, 16 ppm
[2] = test system: Phakopsora pachyrhizi (F129L); assay: Protective control of soybean rust on soybeans (PHAKPA P2); format: in vivo; details: for PHAKPA (F129L) Disease level (%) P2 at 16 ppm / PHAKPA (F129L) Disease level (%) P2 at 4 ppm: P2 protective, % diseased leaf area; for % PHAKPA (F129L) Disease level P2 at 4 ppm: protective P2, 4 ppm; for % PHAKPA (F129L) Disease level P2 at 4 ppm / % PHAKPA (F129L) Disease level P2 at 16 ppm: soybean rust F129L; for % PHAKPA (F129L) Disease level P2 at 16 ppm: protective P2, 16 ppm

Structure (SMILES) | PHAKPA (F129L) Disease level (%) P6 at 16 ppm [1] | % PHAKPA (F129L) Disease level P6 at 4 ppm [1] | % PHAKPA (F129L) Disease level P6 at 16 ppm [1] | PHAKPA (F129L) Disease level (%) P2 at 16 ppm [2] | % PHAKPA (F129L) Disease level P2 at 4 ppm [2] | % PHAKPA (F129L) Disease level P2 at 16 ppm [2] | PHAKPA (F129L) Disease level (%) P6 at 4 ppm [1] | PHAKPA (F129L) Disease level (%) P2 at 4 ppm [2]
CO/N=C(\C)c1ccc(/C(C)=N/OCc2c(C)cccc2/C(=N\OC)C(=O)OC)cc1 [Ex. 181] | 5% | 33% | 5% | 12% | 22% | 11% | – | –
CC/C(=N\OCc1c(C)cccc1/C(=N\OC)C(=O)NC)c1cccc(C(F)(F)F)c1 [Ex. 188] | – | 11% | 0% | – | 1% | 0% | 30% | 2%
CNC(=O)/C(=N/OC)c1cccc(C)c1CO/N=C(\C)c1cccc(-c2noc(C(F)(F)F)n2)c1 [Ex. 205] | 1% | – | – | 1% | – | – | – | –
CO/N=C(/C(=O)OC)c1cccc(C)c1CO/N=C(\C)c1ccc(OC)cc1 [Ex. 216] | 15% | 80% | 29% | 20% | 77% | 13% | – | –
COC=C(C(=O)OC)c1cccc(C)c1CON=C(C)c1cccc(C(F)(F)F)c1 [Ex. 231] | – | 2% | 0% | – | 0% | 0% | 2% | 0%
COC=C(C(=O)OC)c1cccc(C)c1CON=C(C)c1ccccc1C(F)(F)F [Ex. 244] | 2% | 15% | 2% | 0% | 14% | 0% | – | –
CNC(=O)/C(=N/OC)c1cccc(C)c1CO/N=C(\C)c1cccc(N2CC(F)(F)C2)c1 [Ex. 282] | 18% | – | 18% | 15% | – | 15% | – | –
CO/N=C(/C(=O)OC)c1ccccc1CO/N=C(\C)c1cccc(C(F)(F)F)c1 [Trifloxystrobin, trifloxystrobin, reference compound] | 33% | – | – | 17% | – | – | 79% | 71%
C=Cc1cccc(/C(=N\OC)C(=O)NC)c1CO/N=C(\C)c1cccc(C(F)(F)F)c1 [compound 14] | – | 11% | 1% | – | 6% | 0% | – | –
CNC(=O)/C(=N/OC)c1cccc(C)c1CO/N=C(\C)c1ccc(C#N)c(C(F)(F)F)c1 [compound 17] | – | 63% | 57% | – | 70% | 50% | – | –
CO/N=C(/C(=O)OC)c1cccc(C)c1CO/N=C(\C)c1cccc(C(F)F)c1 [compound 19] | – | 87% | 1% | – | 87% | 0% | – | –
CNC(=O)/C(=N/OC)c1cccc(C)c1CO/N=C(/c1ccc(Cl)cc1)C(F)F [compound 22] | – | 100% | 93% | – | 100% | 90% | – | –
CO/N=C(/C(=O)OC)c1cccc(CF)c1CO/N=C(\C)c1cccc(C(F)(F)F)c1 [compound 25] | – | 50% | 2% | – | 16% | 3% | – | –
CNC(=O)/C(=N/OC)c1cccc(CF)c1CO/N=C(\C)c1cccc(C(F)(F)F)c1 [compound 26] | – | 19% | 1% | – | 12% | 0% | – | –
CNC(=O)/C(=N/OC)c1cccc(C)c1CO/N=C(\C)c1cccc(OC(F)(F)F)c1 [compound 29] | – | – | 0% | – | – | 0% | – | –
CNC(=O)/C(=N/OC)c1cccc(C)c1CO/N=C(\C)c1cc(C(F)(F)F)cc(C(F)(F)F)c1 [compound 32] | – | 73% | 43% | – | 80% | 50% | – | –
